Each compound was assayed against T1, delta-5-desaturase (Rattus norvegicus, UniProt Q920R3) (assay: Inhibitory activity on delta-5-desaturase (rat liver microsomal fraction, 14C-eicosatrienoic acid, TLC)). Conditions: test compound at 10 μM, room temperature, 120 minutes.
T1 construct: the microsomal fraction of a rat river (10 μl), which had been diluted to 3 mg/ml; from tissue; host or cells: rat liver microsomal fraction
Format: biochemical
Description: An inhibitory activity of a test compound on delta-5-desaturase was measured according to the method described herein below. To a DMSO solution of the test compound which had been previously prepared, secondary dilution was carried out by using a buffer (300 mM NaH2PO4 [pH 7.4], 450 mM KCl, 30 mM NaF, 9 mM MgCl2, 4.5 mM glutathione [reduced form], 0.3% BSA [fatty acid free, SIGMA]). This diluent compound (10 μl) was added in a 96-well deep well block made of polypropylene, and then the microsomal fraction of a rat river (10 μl), which had been diluted to 3 mg/ml by using a microsome buffer (10 mM Tris-HCl [pH 7.4], 1 mM EDTA, and 250 mM sucrose), was added thereto. The enzyme reaction was initiated by adding 10 μl of 9 mM NADH, 9 mM ATP, 0.9 mM CoA and 10 μCi/ml (8E,11E,14E)-(1-^14C)eicosa-8,11,14-trienoic acid (PerkinElmer Inc.). The enzyme reaction was carried out at room temperature for 120 minutes, and then terminated by addition of 2.5 M NaOH (10 μl). Upon the completion of the reaction, the plate was covered with plate seal and incubated overnight in a dry heater of which temperature was set at 55° C. for saponification. Based on Bligh & Dyer method which had been described in a known document, Canadian Journal of Biochemistry and Physiology (Can. J. Biochem. Physiol.), Vol. 37, page 911, 1959), the solvent extraction of fatty acid was carried out by adding 200 μl of formic acid:methanol:chloroform (1:6:3), keeping the mixture as a single layer for a while, stirring the mixture to a sufficient level, and adding 120 μl of pure water to separate the mixture into two layers. 10 μl of the bottom chloroform layer was spotted on a reverse phase TLC plate (RP-18, 1154230001, Merck Japan, Ltd.) and then developed with acetonitrile:pure water:acetic acid (95:4.5:0.5). The TLC plate obtained after drying was transferred to an Imaging Plate (Fuji Photo Film Co., Ltd.) for more than 5 hours. Detection was carried out by using BAS-5000 (Fuji Photo Film Co., Ltd.). Numerization of thus-obtained image was carried out by using Multi Gauge Ver 2.3 (Fuji Photo Film Co., Ltd.) and an inhibitory ratio (%) of the test compound at 10 μM on delta-5-desaturase was obtained.

T1 sequence (Q920R3 whole entry): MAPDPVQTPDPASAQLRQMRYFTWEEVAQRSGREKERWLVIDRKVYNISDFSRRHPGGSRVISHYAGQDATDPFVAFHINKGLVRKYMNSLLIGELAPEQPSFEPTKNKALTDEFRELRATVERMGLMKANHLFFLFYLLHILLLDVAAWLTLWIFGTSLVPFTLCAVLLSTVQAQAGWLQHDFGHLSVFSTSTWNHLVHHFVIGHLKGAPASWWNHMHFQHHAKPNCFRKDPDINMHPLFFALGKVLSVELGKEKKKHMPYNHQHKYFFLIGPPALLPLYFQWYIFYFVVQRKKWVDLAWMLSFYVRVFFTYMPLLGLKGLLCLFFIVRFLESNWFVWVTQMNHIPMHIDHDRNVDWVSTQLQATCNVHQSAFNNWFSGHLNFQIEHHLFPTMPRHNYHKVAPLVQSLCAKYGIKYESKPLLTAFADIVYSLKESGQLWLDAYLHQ

SMILES | inhibition at 10 µM
O=C(CCCSc1nc2cc[nH]c2c(=O)n1-c1ccc(OCC(F)(F)F)cc1)NC1CC1 [Example 76, N-cyclopropyl-4-({4-oxo-3-[4-(2,2,2-trifluoroethoxy)phenyl]-4,5-dihydro-3H-pyrrolo[3,2-d]pyrimidin-2-yl}sulfanyl)butanamide] | 99%
CS(=O)(=O)CCCSc1nc2[nH]ccc2c(=O)n1-c1ccc(OCC2CC2)cc1 [Example 215, 3-[4-(Cyclopropylmethoxy)phenyl]-2-{[3-(methylsulfonyl)propyl]sulfanyl}-3,7-dihydro-4H-pyrrolo[2,3-d]pyrimidin-4-one] | 102%
CSc1nc2c(c(=O)n1-c1ccc(OCC(F)(F)F)cc1)CC(=O)N2 [Example 267, 2-(Methylsulfanyl)-3-[4-(2,2,2-trifluoroethoxy)phenyl]-5,7-dihydro-3H-pyrrolo[2,3-d]pyrimidine-4,6-dione] | 100%
O=C1Cc2c(nc(SC3CC3)n(-c3ccc(OCC(F)(F)F)cc3)c2=O)N1 [Example 291, 2-(Cyclopropylsulfanyl)-3-[4-(2,2,2-trifluoroethoxy)phenyl]-5,7-dihydro-3H-pyrrolo[2,3-d]pyrimidine-4,6-dione] | 99%
O=C1Cc2c(nc(OC(CF)CF)n(-c3ccc(OCC(F)(F)F)cc3)c2=O)N1 [Example 338, 2-[2-Fluoro-1-(fluoromethyl)ethoxy]-3-[4-(2,2,2-trifluoroethoxy)phenyl]-5,7-dihydro-3H-pyrrolo[2,3-d]pyrimidine-4,6-dione] | 100%
N#CCCNC(=O)CCCSc1nc2[nH]ccc2c(=O)n1-c1ccc(OCC2CC2)cc1 [Example 185, N-(2-cyanoethyl)-4-({3-[4-(cyclopropylmethoxy)phenyl]-4-oxo-4,7-dihydro-3H-pyrrolo[2,3-d]pyrimidin-2-yl}sulfanyl)butanamide] | 97%
O=c1c2cc[nH]c2nc(SCC(F)(F)F)n1-c1ccc(OCC(F)(F)F)cc1 [Example 225, 3-[4-(2,2,2-Trifluoroethoxy)phenyl]-2-[(2,2,2-trifluoroethyl)sulfanyl]-3,7-dihydro-4H-pyrrolo[2,3-d]pyrimidin-4-one] | 100%
CCOCCOCCSc1nc2cc[nH]c2c(=O)n1-c1ccc(OCC(F)(F)F)cc1 [Example 79, 2-{[2-(2-Ethoxyethoxy)ethyl]sulfanyl}-3-[4-(2,2,2-trifluoroethoxy)phenyl]-3,5-dihydro-4H-pyrrolo[3,2-d]pyrimidin-4-one] | 99%
CC(C)Sc1nc2c(c(=O)n1-c1ccc(OCC(F)(F)C(F)(F)F)cc1)CC(=O)N2 [Example 324, 2-[(1-Methylethyl)sulfanyl]-3-[4-(2,2,3,3,3-pentafluoropropoxy)phenyl]-5,7-dihydro-3H-pyrrolo[2,3-d]pyrimidine-4,6-dione] | 101%
CC(C)Oc1nc2c(c(=O)n1-c1ccc(OCC(F)(F)C(F)(F)F)cc1)CC(=O)N2 [Example 310, 2-(1-Methylethoxy)-3-[4-(2,2,3,3,3-pentafluoropropoxy)phenyl]-5,7-dihydro-3H-pyrrolo[2,3-d]pyrimidine-4,6-dione] | 99%
O=c1c2cc[nH]c2nc(SCC2CC2)n1-c1ccc(OCC(F)(F)F)cc1 [Example 255, 2-[(Cyclopropylmethyl)sulfanyl]-3-[4-(2,2,2-trifluoroethoxy)phenyl]-3,7-dihydro-4H-pyrrolo[2,3-d]pyrimidin-4-one] | 101%
CCCOc1nc2[nH]ccc2c(=O)n1-c1ccc(OCC(F)(F)F)cc1 [Example 217, 2-Propoxy-3-[4-(2,2,2-trifluoroethoxy)phenyl]-3,7-dihydro-4H-pyrrolo[2,3-d]pyrimidin-4-one] | 99%
N#CCCNC(=O)CCCSc1nc2cc[nH]c2c(=O)n1-c1ccc(OCC(F)(F)F)cc1 [Example 67] | 96%
CC(C)Sc1nc2[nH]ccc2c(=O)n1-c1ccc(OCC(F)(F)F)cc1 [Example 251, 2-[(1-Methylethyl)sulfanyl]-3-[4-(2,2,2-trifluoroethoxy)phenyl]-3,7-dihydro-4H-pyrrolo[2,3-d]pyrimidin-4-one] | 97%
O=c1c2[nH]ccc2nc(SCCCCO)n1-c1ccc(OCC(F)(F)F)cc1 [Example 119, 2-[(4-Hydroxybutyl)sulfanyl]-3-[4-(2,2,2-trifluoroethoxy)phenyl]-3,5-dihydro-4H-pyrrolo[3,2-d]pyrimidin-4-one] | 102%
CCOCCCSc1nc2[nH]ccc2c(=O)n1-c1ccc(OCC(F)(F)F)cc1 [Example 213, 2-[(3-Ethoxypropyl)sulfanyl]-3-[4-(2,2,2-trifluoroethoxy)phenyl]-3,7-dihydro-4H-pyrrolo[2,3-d]pyrimidin-4-one] | 100%
O=c1c2cc[nH]c2nc(OCC(F)(F)C(F)(F)F)n1-c1ccc(OCC(F)(F)F)cc1 [Example 239, 2-(2,2,3,3,3-Pentafluoropropoxy)-3-[4-(2,2,2-trifluoroethoxy)phenyl]-3,7-dihydro-4H-pyrrolo[2,3-d]pyrimidin-4-one] | 101%
O=C1Cc2c(nc(SCC3CC3)n(-c3ccc(OCC(F)(F)F)c(F)c3)c2=O)N1 [Example 322, 2-[(Cyclopropylmethyl)sulfanyl]-3-[3-fluoro-4-(2,2,2-trifluoroethoxy)phenyl]-5,7-dihydro-3H-pyrrolo[2,3-d]pyrimidine-4,6-dione] | 101%
N#CCCNC(=O)CSc1nc2c(c(=O)n1-c1ccc(OCC(F)(F)F)cc1)CC(=O)N2 [Example 328, N-(2-cyanoethyl)-2-({4,6-dioxo-3-[4-(2,2,2-trifluoroethoxy)phenyl]-4,5,6,7-tetrahydro-3H-pyrrolo[2,3-d]pyrimidin-2-yl}sulfanyl)acetamide] | 97%
CC(C)(C)COc1ccc(-n2c(SCCCC(=O)NCCC#N)nc3cc[nH]c3c2=O)cc1 [Example 115, N-(2-cyanoethyl)-4-({3-[4-(2,2-dimethylpropoxy)phenyl]-4-oxo-4,5-dihydro-3H-pyrrolo[3,2-d]pyrimidin-2-yl}sulfanyl)butanamide] | 103%
O=C1Cc2c(nc(SCCC3CC3)n(-c3ccc(OCC(F)(F)F)cc3)c2=O)N1 [Example 329, 2-[(2-Cyclopropylethyl)sulfanyl]-3-[4-(2,2,2-trifluoroethoxy)phenyl]-5,7-dihydro-3H-pyrrolo[2,3-d]pyrimidine-4,6-dione] | 101%
O=c1c2[nH]ccc2nc(SCCCOC2CCOCC2)n1-c1ccc(OCC(F)(F)F)cc1 [Example 158, 2-{[3-(Tetrahydro-2H-pyran-4-yloxy)propyl]sulfanyl}-3-[4-(2,2,2-trifluoroethoxy)phenyl]-3,5-dihydro-4H-pyrrolo[3,2-d]pyrimidin-4-one] | 99%
N#CCCNC(=O)CCCSc1nc2cc[nH]c2c(=O)n1-c1ccc(OCC2CC2)cc1 [Example 92, N-(2-cyanoethyl)-4-({3-[4-(cyclopropylmethoxy)phenyl]-4-oxo-4,5-dihydro-3H-pyrrolo[3,2-d]pyrimidin-2-yl}sulfanyl)butanamide] | 102%
O=C1Cc2c(nc(OCC(F)(F)F)n(-c3ccc(OCC(F)(F)C(F)(F)F)cc3)c2=O)N1 [Example 306, 3-[4-(2,2,3,3,3-Pentafluoropropoxy)phenyl]-2-(2,2,2-trifluoroethoxy)-5,7-dihydro-3H-pyrrolo[2,3-d]pyrimidine-4,6-dione] | 99%
CC(C)(O)CNC(=O)CCCSc1nc2cc[nH]c2c(=O)n1-c1ccc(OCC(F)(F)F)cc1 [Example 99, N-(2-hydroxy-2-methylpropyl)-4-({4-oxo-3-[4-(2,2,2-trifluoroethoxy)phenyl]-4,5-dihydro-3H-pyrrolo[3,2-d]pyrimidin-2-yl}sulfanyl)butanamide] | 94%
N#CC1(CSc2nc3c(c(=O)n2-c2ccc(OCC(F)(F)F)cc2)CC(=O)N3)CC1 [Example 339, 1-[({4,6-Dioxo-3-[4-(2,2,2-trifluoroethoxy)phenyl]-4,5,6,7-tetrahydro-3H-pyrrolo[2,3-d]pyrimidin-2-yl}sulfanyl)methyl]cyclopropanecarbonitrile] | 100%
O=c1c2[nH]ccc2nc(SCCCOC2CCOCC2)n1-c1ccc(OCC2CC2)cc1 [Example 157, 3-[4-(Cyclopropylmethoxy)phenyl]-2-{[3-(tetrahydro-2H-pyran-4-yloxy)propyl]sulfanyl}-3,5-dihydro-4H-pyrrolo[3,2-d]pyrimidin-4-one] | 101%
CC(C)(O)CSc1nc2c(c(=O)n1-c1ccc(OCC(F)(F)F)cc1)CC(=O)N2 [Example 315, 2-[(2-Hydroxy-2-methylpropyl)sulfanyl]-3-[4-(2,2,2-trifluoroethoxy)phenyl]-5,7-dihydro-3H-pyrrolo[2,3-d]pyrimidine-4,6-dione] | 99%

Source: US20100190747A1, “Fused ring compound and use thereof” (priority 2009, published 2010)
